Test results from the NIST ThermoML archive (doi:10.1016/j.fluid.2007.06.006).
Numbers after ± are expanded uncertainties.

Details: Liquid

vapor or sublimation pressure (355.83 K) [kPa]	vapor or sublimation pressure (365.99 K) [kPa]	vapor or sublimation pressure (373.87 K) [kPa]	vapor or sublimation pressure (380.27 K) [kPa]	vapor or sublimation pressure (385.71 K) [kPa]	vapor or sublimation pressure (390.45 K) [kPa]	vapor or sublimation pressure (392.2 K) [kPa]	vapor or sublimation pressure (377.95 K) [kPa]	vapor or sublimation pressure (389.37 K) [kPa]	vapor or sublimation pressure (398.01 K) [kPa]	vapor or sublimation pressure (405.04 K) [kPa]	vapor or sublimation pressure (411.02 K) [kPa]	vapor or sublimation pressure (416.25 K) [kPa]	vapor or sublimation pressure (418.18 K) [kPa]	Compound
26.7 ± 0.2	40 ± 0.2	53.3 ± 0.2	66.7 ± 0.2	80 ± 0.2	93.3 ± 0.3	98.7 ± 0.3								COCC(C)O (centres undefined) [1-methoxy-2-propanol]
							26.7 ± 0.2	40 ± 0.2	53.3 ± 0.2	66.7 ± 0.2	80 ± 0.2	93.3 ± 0.3	98.7 ± 0.3	COCC(C)OC(C)=O (centres undefined) [1-methoxy-2-propyl acetate]
